For 21 compounds, IC50 results are on record in patent US12172990B2 (Constellation Pharmaceuticals, Inc., priority 2018, dated 2024).

In one experiment the target is full length human TREX1 (Homo sapiens (Human), UniProt Q9NSU2). Put plainly: TREX1 Biochemical Assay (fluorescence assay measuring degradation of dsDNA substrate). Conditions: 150 pM TREX1, 60 nM dsDNA substrate, 25 minutes at room temperature. As for the experimental part: Degradation of the dsDNA liberates free fluorophore to produce a fluorescent signal. Specifically, 7.5 μL of N-terminally His-Tev tagged full length human TREX1 (expressed in E. coli and purified in house) in reaction buffer (50 mM Tris (pH 7.4), 150 mM NaCl, 2 mM DTT, 0.1 mg/mL BSA, 0.01% (v/v) Tween-20 and 100 mM MgCl2 were added to a 384-well Black ProxiPlate Plus (Perkin Elmer) which already contained compound (150 nL) at varying concentrations as a 10 point dose-response in DMSO. To this was added 7.5 μL of dsDNA substrate (Strand A: 5′ TEX615/GCT AGG CAG 3′; Strand B: 5′ CTG CCT AGC/IAbRQSp (Integrated DNA Technologies)) in reaction buffer. Final concentrations were 150 pM TREX1, 60 nM dsDNA substrate in reaction buffer with 1.0% DMSO (v/v). After 25 minutes at room temperature, reactions were quenched by the addition of 5 μL of stop buffer (same as reaction buffer plus 200 mM EDTA). Final concentrations in the quenched reaction were 112.5 pM TREX1, 45 nM DNA and 50 mM EDTA in a volume of 20 μL. After a 5-minute incubation at room temperature, plates were read in a laser sourced Envision (Perkin-Elmer), measuring fluorescence at 615 nm following excitation w/570 nm light. IC50 values were calculated by comparing the measured fluorescence at 615 nm ratio relative to control wells pre-quenched w/stop buffer (100% inhibition) and no inhibitor (0% inhibition) controls as using non-linear least square four parameter fits and either Genedata or GraphPad Prism (GraphPad Software, Inc.).

Experiment [1] addresses human TREX2 (residues M44-A279) (Homo sapiens (Human), UniProt Q9BQ50). Put plainly: TREX2 Biochemical Assay (fluorescence assay measuring degradation of dsDNA substrate). As to conditions: 2.5 nM TREX2, 60 nM dsDNA substrate, 25 minutes at room temperature. Here is the method: Degradation of the dsDNA liberates free fluorophore to produce a fluorescent signal. Specifically, 7.5 μL of N-terminally His-Tev tagged human TREX2 (residues M44-A279, expressed in E. coli and purified in house) in reaction buffer (50 mM Tris (pH 7.4), 150 mM NaCl, 2 mM DTT, 0.1 mg/mL BSA, 0.01% (v/v) Tween-20 and 100 mM MgCl2) was added to a 384-well Black ProxiPlate Plus (Perkin Elmer) which already contained compound (150 nL) at varying concentrations as a 10 point dose-response in DMSO. To this was added 7.5 μL of dsDNA substrate (Strand A: 5′ TEX615/GCT AGG CAG 3′; Strand B: 5′ CTG CCT AGC/IAbRQSp (IDT)) in reaction buffer. Final concentrations were 2.5 nM TREX2, 60 nM dsDNA substrate in reaction buffer with 1.0% DMSO (v/v). After 25 minutes at room temperature, reactions were quenched by the addition of 5 μL of stop buffer (same as reaction buffer plus 200 mM EDTA). Final concentrations in the quenched reaction mixture were […] TREX2, 45 nM DNA and 50 mM EDTA in a volume of 20 μL. After a 5-minute incubation at room temperature, plates were read in a laser sourced Envision (Perkin-Elmer), measuring fluorescence at 615 nm following excitation w/570 nm light. IC50 values were calculated by comparing the measured fluorescence at 615 nm ratio relative to control wells pre-quenched w/stop buffer (100% inhibition) and no inhibitor (0% inhibition) controls as using non-linear least square four parameter fits and either Genedata or GraphPad Prism (GraphPad Software, Inc.).

A value given as a limit tells only on which side of the number the result lay.

human TREX2 (residues M44-A279), sequence (Q9BQ50 whole entry, the tested form may be a part): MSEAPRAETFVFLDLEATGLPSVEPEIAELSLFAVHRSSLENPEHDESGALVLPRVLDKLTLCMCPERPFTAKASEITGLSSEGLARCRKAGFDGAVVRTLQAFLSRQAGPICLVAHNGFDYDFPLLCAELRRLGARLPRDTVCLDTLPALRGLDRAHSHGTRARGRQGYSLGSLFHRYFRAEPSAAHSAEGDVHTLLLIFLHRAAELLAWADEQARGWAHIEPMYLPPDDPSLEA
full length human TREX1, sequence (Q9NSU2 whole entry): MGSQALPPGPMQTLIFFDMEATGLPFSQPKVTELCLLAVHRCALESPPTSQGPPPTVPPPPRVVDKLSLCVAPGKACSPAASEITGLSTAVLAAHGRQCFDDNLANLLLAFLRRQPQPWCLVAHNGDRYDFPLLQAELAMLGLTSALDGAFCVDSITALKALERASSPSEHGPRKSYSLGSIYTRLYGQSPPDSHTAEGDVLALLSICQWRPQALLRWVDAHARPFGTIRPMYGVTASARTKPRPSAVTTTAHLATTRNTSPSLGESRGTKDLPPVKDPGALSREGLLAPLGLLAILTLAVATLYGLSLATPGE

As for `Cn1c(CC2CCN(C(=O)OC(C)(C)C)CC2)nc(C(=O)Nc2cnoc2)c(O)c1=O` [Example 17, tert-butyl 4-((5-hydroxy-4-(isoxazol-4-ylcarbamoyl)-1-methyl-6-oxo-1,6-dihydropyrimidin-2-yl)methyl)piperidine-1-carboxylate], the IC50 lay in the range of 1000 to 10000 nM against full length human TREX1 and 10000 to 100000 nM in experiment [1].
In the same order, the values of `Cc1cc(Nc2cccc(C)n2)cc(-c2nc(C(=O)Nc3cnoc3)c(O)c(=O)n2C)c1` [Example 34, 5-hydroxy-N-(isoxazol-4-yl)-1-methyl-2-(3-methyl-5-((6-methylpyridin-2-yl)amino)phenyl)-6-oxo-1,6-dihydropyrimidine-4-carboxamide] are 100 to 1000 nM and 1000 to 10000 nM.
For `Cn1c(OC2CCCCC2)nc(C(=O)Nc2cnoc2)c(O)c1=O` [Example 121, 2-(cyclohexyloxy)-5-hydroxy-N-(isoxazol-4-yl)-1-methyl-6-oxo-1,6-dihydropyrimidine-4-carboxamide], in that order: under 100 nM and 1000 to 10000 nM.
In the same order, the values of `Cc1ccc(Br)cc1-c1nc(C(=O)Nc2cnoc2)c(O)c(=O)n1C` [Example 4, 2-(5-bromo-2-methylphenyl)-5-hydroxy-N-(isoxazol-4-yl)-1-methyl-6-oxo-1,6-dihydropyrimidine-4-carboxamide] are 100 to 1000 nM and 1000 to 10000 nM.
For the compound `Cc1cc(C(=O)NCCO)cc(-c2nc(C(=O)Nc3cnoc3)c(O)c(=O)n2C)c1` [Example 38, 5-hydroxy-2-(3-((2-hydroxyethyl)carbamoyl)-5-methylphenyl)-N-(isoxazol-4-yl)-1-methyl-6-oxo-1,6-dihydropyrimidine-4-carboxamide], the values for the IC50 (against full length human TREX1; in experiment [1]) were 100 to 1000 nM and 10000 to 100000 nM, respectively.
For `Cc1cc(C(=O)NC2CCOCC2)cc(-c2nc(C(=O)Nc3cnoc3)c(O)c(=O)n2C)c1` [Example 37, 5-hydroxy-N-(isoxazol-4-yl)-1-methyl-2-(3-methyl-5-((tetrahydro-2H-pyran-4-yl)carbamoyl)phenyl)-6-oxo-1,6-dihydropyrimidine-4-carboxamide], the IC50 against full length human TREX1 lay within 100 to 1000 nM; in experiment [1], 10000 to 100000 nM.
For `CC(=O)N1CCN(c2nc(C(=O)Nc3cnoc3)c(O)c(=O)n2C)CC1` [Example 116, 2-(4-acetylpiperazin-1-yl)-5-hydroxy-N-(isoxazol-4-yl)-1-methyl-6-oxo-1,6-dihydropyrimidine-4-carboxamide], in that order: 100 to 1000 nM and 10000 to 100000 nM.
Consider `Cn1c(N2CC[C@@H](c3ccccc3)C2)nc(C(=O)Nc2cnoc2)c(O)c1=O` [Example 109, (S)-5-hydroxy-N-(isoxazol-4-yl)-1-methyl-6-oxo-2-(3-phenylpyrrolidin-1-yl)-1,6-dihydropyrimidine-4-carboxamide], for which the IC50 is under 100 nM on full length human TREX1 and 10000 to 100000 nM in experiment [1].
In the same order, the values of `Cc1cc(-c2ccn(C)n2)cc(-c2nc(C(=O)Nc3cnoc3)c(O)c(=O)n2C)c1` [Example 35, 5-hydroxy-N-(isoxazol-4-yl)-1-methyl-2-(3-methyl-5-(1-methyl-1H-pyrazol-3-yl)phenyl)-6-oxo-1,6-dihydropyrimidine-4-carboxamide] are 100 to 1000 nM and 1000 to 10000 nM.
Consider `Cc1cc(C(=O)NC2CCN(C)CC2)cc(-c2nc(C(=O)Nc3cnoc3)c(O)c(=O)n2C)c1` [Example 54, 5-hydroxy-N-(isoxazol-4-yl)-1-methyl-2-(3-methyl-5-((1-methylpiperidin-4-yl)carbamoyl)phenyl)-6-oxo-1,6-dihydropyrimidine-4-carboxamide], for which the results for the 50% inhibitory concentration (IC50) (against full length human TREX1; in experiment [1]) were 100 to 1000 nM and 10000 to 100000 nM, respectively.
In the same order, the values of `Cn1c(C2CCN(C(=O)OC(C)(C)C)CC2)nc(C(=O)Nc2cnoc2)c(O)c1=O` [Example 12, tert-butyl 4-(5-hydroxy-4-(isoxazol-4-ylcarbamoyl)-1-methyl-6-oxo-1,6-dihydropyrimidin-2-yl)piperidine-1-carboxylate] are 1000 to 10000 nM and 10000 to 100000 nM.
For `COc1ccccc1C(=O)N1CCCC(c2nc(C(=O)Nc3cnoc3)c(O)c(=O)n2C)C1` (stereo not drawn) [Example 41, 5-hydroxy-N-(isoxazol-4-yl)-2-(1-(2-methoxybenzoyl)piperidin-3-yl)-1-methyl-6-oxo-1,6-dihydropyrimidine-4-carboxamide], in that order: 100 to 1000 nM and 10000 to 100000 nM.
For `Cn1c(-c2ccccn2)nc(C(=O)Nc2cnoc2)c(O)c1=O` [Example 27, 5-hydroxy-N-(isoxazol-4-yl)-1-methyl-6-oxo-2-(pyridin-2-yl)-1,6-dihydropyrimidine-4-carboxamide], in that order: over 10000 nM and over 100000 nM.
For the compound `Cn1c(C2CCCN(C(=O)c3cccnc3)C2)nc(C(=O)Nc2cnoc2)c(O)c1=O` (stereo not drawn) [Example 93, 5-hydroxy-N-(isoxazol-4-yl)-1-methyl-2-(1-nicotinoylpiperidin-3-yl)-6-oxo-1,6-dihydropyrimidine-4-carboxamide], the half-inhibitory concentration (IC50) on full length human TREX1 lay within 100 to 1000 nM; in experiment [1], 1000 to 10000 nM.
Take `Cn1c([C@H]2CCCN(C(=O)c3ccc(Cl)c(Cl)c3)C2)nc(C(=O)Nc2cnoc2)c(O)c1=O` [Example 97, (S)-2-(1-(3,4-dichlorobenzoyl)piperidin-3-yl)-5-hydroxy-N-(isoxazol-4-yl)-1-methyl-6-oxo-1,6-dihydropyrimidine-4-carboxamide]: the IC50 against full length human TREX1 was under 100 nM; in experiment [1] it was under 1000 nM.
In the same order, the values of `C[C@@H]1CC[C@H](c2nc(C(=O)Nc3cnoc3)c(O)c(=O)n2C)CN1C(=O)c1ccc(Cl)c(Cl)c1` [Example 83, 2-((3S,6R)-1-(3,4-dichlorobenzoyl)-6-methylpiperidin-3-yl)-5-hydroxy-N-(isoxazol-4-yl)-1-methyl-6-oxo-1,6-dihydropyrimidine-4-carboxamide] are 1000 to 10000 nM and 10000 to 100000 nM.
For `Cn1c(C2CCCN(C(=O)c3ccccc3Cl)C2)nc(C(=O)Nc2cnoc2)c(O)c1=O` (stereo not drawn) [Example 46, 2-(1-(2-chlorobenzoyl)piperidin-3-yl)-5-hydroxy-N-(isoxazol-4-yl)-1-methyl-6-oxo-1,6-dihydropyrimidine-4-carboxamide], the IC50 on full length human TREX1 fell in the range of 100 to 1000 nM; in experiment [1], 10000 to 100000 nM.
For `Cn1c(N2CC(OCc3ccccc3)C2)nc(C(=O)Nc2cnoc2)c(O)c1=O` [Example 123, 2-(3-(benzyloxy)azetidin-1-yl)-5-hydroxy-N-(isoxazol-4-yl)-1-methyl-6-oxo-1,6-dihydropyrimidine-4-carboxamide], in that order: 100 to 1000 nM and 10000 to 100000 nM.
For `Cn1c(N2CCC[C@H](c3ccccn3)C2)nc(C(=O)Nc2cnoc2)c(O)c1=O` [Example 101, (S)-5-hydroxy-N-(isoxazol-4-yl)-1-methyl-6-oxo-2-(3-(pyridin-2-yl)piperidin-1-yl)-1,6-dihydropyrimidine-4-carboxamide], in that order: 100 to 1000 nM and 10000 to 100000 nM.
For `Cn1c(N2CCC[C@H](C(N)=O)C2)nc(C(=O)Nc2cnoc2)c(O)c1=O` [Example 119, (S)-2-(3-carbamoylpiperidin-1-yl)-5-hydroxy-N-(isoxazol-4-yl)-1-methyl-6-oxo-1,6-dihydropyrimidine-4-carboxamide], in that order: 100 to 1000 nM and 10000 to 100000 nM.
Consider `Cn1c(C2CCCN(C(=O)c3cn[nH]c3)C2)nc(C(=O)Nc2cnoc2)c(O)c1=O` (stereo not drawn) [Example 94, 2-(1-(1H-pyrazole-4-carbonyl)piperidin-3-yl)-5-hydroxy-N-(isoxazol-4-yl)-1-methyl-6-oxo-1,6-dihydropyrimidine-4-carboxamide], for which the half-maximal inhibitory concentration (IC50) against full length human TREX1 fell in the range of 100 to 1000 nM; in experiment [1], 10000 to 100000 nM.

What is called IC50 is the concentration that gives 50% inhibition. Lower therefore signals greater potency.
